In ChEMBL document CHEMBL1151538, “Rearrangement of unsymmetrical azetidinone disulfides to 2-(heterocyclylthiomethyl)penams, a synthetic approach to new -lactamase inhibitors” (Bioorg Med Chem Lett, 1993):

What was measured:
Beta-lactamase BRO-1 = target: T1, Beta-lactamase BRO-1 (Moraxella catarrhalis, UniProt Q59514); test: Inhibitory activity against Branhamella catarrhalis 89001 Class-III BRO-1 type beta-lactamase enzyme; parameters: species or system b.catarr
T1 sequence (Q59514 whole entry): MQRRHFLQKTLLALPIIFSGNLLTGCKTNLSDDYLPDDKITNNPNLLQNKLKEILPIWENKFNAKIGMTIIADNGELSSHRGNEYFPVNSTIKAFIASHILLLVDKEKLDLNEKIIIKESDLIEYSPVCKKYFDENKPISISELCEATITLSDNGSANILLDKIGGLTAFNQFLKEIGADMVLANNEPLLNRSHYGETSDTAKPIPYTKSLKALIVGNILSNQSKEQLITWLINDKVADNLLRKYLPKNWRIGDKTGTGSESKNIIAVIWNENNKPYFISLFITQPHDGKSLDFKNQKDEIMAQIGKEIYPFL

Beta-lactamase SHV-1 = target: T2, Beta-lactamase SHV-1 (Escherichia coli, UniProt P0AD63); test: Inhibitory activity against Escherichia coli HA208 Class-III SHV-1 type beta-lactamase enzyme
T2 sequence (P0AD63 whole entry): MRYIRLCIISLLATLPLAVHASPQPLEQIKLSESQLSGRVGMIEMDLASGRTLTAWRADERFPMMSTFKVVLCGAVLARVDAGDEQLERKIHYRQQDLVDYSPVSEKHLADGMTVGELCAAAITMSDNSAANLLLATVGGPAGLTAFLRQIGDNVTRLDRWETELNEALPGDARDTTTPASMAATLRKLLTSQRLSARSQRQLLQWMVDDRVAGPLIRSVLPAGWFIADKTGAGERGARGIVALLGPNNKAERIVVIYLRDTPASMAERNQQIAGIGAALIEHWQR

Beta-lactamase OXA-1 = Beta-lactamase OXA-1 (Escherichia coli, UniProt P13661); test: Inhibitory activity against Escherichia coli HA209 Class-V OXA-1 type beta-lactamase enzyme
Beta-lactamase TEM = Beta-lactamase TEM (Escherichia coli, UniProt P62593); test: Inhibitory activity against Escherichia coli HA58R Class-III TEM-1 type beta-lactamase enzyme
Beta-lactamase [1] = target: Beta-lactamase (Staphylococcus aureus, UniProt P00807); test: Inhibitory activity against Staphylococcus aureus CJ8 beta-lactamase enzyme
Beta-lactamase [2] = target: Beta-lactamase (Enterobacter cloacae, UniProt P05364); test: Inhibitory activity against Enterobacter cloacae HC8 Class-I beta-lactamase enzyme type P99
Beta-lactamase [3] = target: T3, Beta-lactamase (Klebsiella oxytoca, UniProt Q8RT60); test: Inhibitory activity against Klebsiella oxytoca HC7 Class-IV K1 type beta-lactamase enzyme
T3 sequence (Q8RT60 whole entry): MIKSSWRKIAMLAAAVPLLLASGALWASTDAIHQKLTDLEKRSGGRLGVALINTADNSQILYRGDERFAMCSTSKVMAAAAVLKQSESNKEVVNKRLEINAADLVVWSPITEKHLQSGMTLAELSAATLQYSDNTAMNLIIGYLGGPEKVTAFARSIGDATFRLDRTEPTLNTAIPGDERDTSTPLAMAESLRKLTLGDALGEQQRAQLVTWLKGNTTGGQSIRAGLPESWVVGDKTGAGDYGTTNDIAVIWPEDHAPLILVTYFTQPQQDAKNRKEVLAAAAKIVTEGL

Beta-lactamase [4] = target: Beta-lactamase (Citrobacter freundii, UniProt P05193); test: Inhibitory activity against Citrobacter freundii 87470 Class-I beta-lactamase enzyme
Chain of Beta-lactamase (Citrobacter freundii, UniProt P05193) (P05193 whole entry): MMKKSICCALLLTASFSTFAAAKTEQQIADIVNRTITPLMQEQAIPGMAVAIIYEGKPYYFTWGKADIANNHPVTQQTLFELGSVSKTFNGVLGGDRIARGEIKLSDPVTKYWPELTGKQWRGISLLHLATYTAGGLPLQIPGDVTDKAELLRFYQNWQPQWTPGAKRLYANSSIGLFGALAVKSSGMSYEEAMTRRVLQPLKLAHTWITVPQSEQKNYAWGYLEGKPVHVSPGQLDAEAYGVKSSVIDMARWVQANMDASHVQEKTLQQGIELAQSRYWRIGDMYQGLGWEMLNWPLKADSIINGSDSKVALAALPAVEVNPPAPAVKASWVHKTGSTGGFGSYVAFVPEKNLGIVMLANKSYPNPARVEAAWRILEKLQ

Chain of Beta-lactamase TEM (P62593 whole entry): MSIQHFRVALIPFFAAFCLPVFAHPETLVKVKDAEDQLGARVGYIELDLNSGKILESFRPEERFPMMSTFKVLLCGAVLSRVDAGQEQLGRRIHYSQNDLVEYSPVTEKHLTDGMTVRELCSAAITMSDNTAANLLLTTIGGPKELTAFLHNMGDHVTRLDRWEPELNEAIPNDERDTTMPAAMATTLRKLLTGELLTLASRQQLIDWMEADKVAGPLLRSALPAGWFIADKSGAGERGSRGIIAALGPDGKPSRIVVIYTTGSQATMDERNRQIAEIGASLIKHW
Chain of Beta-lactamase OXA-1 (P13661 whole entry): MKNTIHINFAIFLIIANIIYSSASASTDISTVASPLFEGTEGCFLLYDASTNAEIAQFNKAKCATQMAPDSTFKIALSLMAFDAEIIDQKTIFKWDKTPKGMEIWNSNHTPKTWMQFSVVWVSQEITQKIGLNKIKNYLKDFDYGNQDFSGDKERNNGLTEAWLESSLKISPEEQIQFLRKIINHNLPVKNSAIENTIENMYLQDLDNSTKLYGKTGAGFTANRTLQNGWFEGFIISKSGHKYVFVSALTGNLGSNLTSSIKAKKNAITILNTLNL
Chain of Beta-lactamase (Enterobacter cloacae, UniProt P05364) (P05364 whole entry): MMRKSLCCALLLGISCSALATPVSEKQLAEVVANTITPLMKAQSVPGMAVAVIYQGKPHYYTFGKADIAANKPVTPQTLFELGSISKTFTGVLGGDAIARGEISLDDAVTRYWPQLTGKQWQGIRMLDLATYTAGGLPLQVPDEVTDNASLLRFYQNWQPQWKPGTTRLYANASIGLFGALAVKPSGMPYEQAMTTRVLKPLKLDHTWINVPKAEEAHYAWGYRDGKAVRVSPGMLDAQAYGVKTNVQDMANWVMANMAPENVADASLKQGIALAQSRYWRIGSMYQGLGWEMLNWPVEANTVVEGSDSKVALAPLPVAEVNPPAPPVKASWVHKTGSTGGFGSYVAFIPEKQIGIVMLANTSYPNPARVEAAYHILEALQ
Chain of Beta-lactamase (Staphylococcus aureus, UniProt P00807) (P00807 whole entry): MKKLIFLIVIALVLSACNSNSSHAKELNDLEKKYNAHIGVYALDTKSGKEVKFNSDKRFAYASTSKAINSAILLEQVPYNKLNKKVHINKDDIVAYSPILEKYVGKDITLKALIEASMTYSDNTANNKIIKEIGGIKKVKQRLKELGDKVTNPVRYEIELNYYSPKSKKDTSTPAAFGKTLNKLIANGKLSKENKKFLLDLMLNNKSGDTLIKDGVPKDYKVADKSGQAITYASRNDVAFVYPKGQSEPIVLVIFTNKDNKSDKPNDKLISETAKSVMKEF

Cn1ccnc1SC[C@@]1(C)[C@H](C(=O)O)N2C(=O)C[C@H]2S1(=O)=O showed an IC50 (Beta-lactamase BRO-1) of 2.9 nM, an IC50 (Beta-lactamase SHV-1) of 926 nM and an IC50 (Beta-lactamase OXA-1) of 463 nM.

Cn1nnnc1SC[C@@]1(C)[C@H](C(=O)O)N2C(=O)C[C@H]2S1(=O)=O gave an IC50 (Beta-lactamase BRO-1) of 8.64 nM, an IC50 (Beta-lactamase SHV-1) of 72 nM and an IC50 (Beta-lactamase OXA-1) of 92.1 nM. The IC50 (Beta-lactamase TEM) was 17.3 nM.

Work on C[C@@]1(CSc2nc3ccccc3s2)S[C@@H]2[C@H](Br)C(=O)N2[C@H]1C(=O)O yielded an IC50 (Beta-lactamase BRO-1) of 56.1 nM, an IC50 (Beta-lactamase SHV-1) of 141 nM and an IC50 (Beta-lactamase OXA-1) of 1410 nM. For the same compound, the IC50 (Beta-lactamase TEM) was 35.9 nM.

C[C@]1(CSc2nc3ccccc3o2)[C@H](C(=O)O)N2C(=O)C[C@H]2S1(=O)=O was tested, and the IC50 (Beta-lactamase OXA-1) was 83.7 nM and the IC50 (Beta-lactamase TEM) was 10.5 nM.

Compound Cn1nnnc1SC[C@]1(C)S[C@@H]2[C@H](Br)C(=O)N2[C@H]1C(=O)O has an IC50 (Beta-lactamase BRO-1) of 50.7 nM, an IC50 (Beta-lactamase SHV-1) of 1010 nM and an IC50 (Beta-lactamase OXA-1) of 8120 nM. The IC50 (Beta-lactamase TEM) was 101 nM.

In the case of Cn1cnnc1SC[C@@]1(C)[C@H](C(=O)O)N2C(=O)C[C@H]2S1(=O)=O, the IC50 (Beta-lactamase BRO-1) is reported as 2.89 nM, the IC50 (Beta-lactamase SHV-1) is reported as 577 nM and the IC50 (Beta-lactamase TEM) is reported as 72.2 nM.

C[C@@]1(CSc2nc3ccccc3o2)S[C@@H]2[C@H](Br)C(=O)N2[C@H]1C(=O)O gave an IC50 (Beta-lactamase [1]) of 116 nM, an IC50 (Beta-lactamase [2]) of 18400 nM and an IC50 (Beta-lactamase [3]) of 1160 nM. It also gave an IC50 (Beta-lactamase SHV-1) of 147 nM, an IC50 (Beta-lactamase TEM) of 30.3 nM and an IC50 (Beta-lactamase [4]) of 14700 nM.

With C[C@]1(CSC2=NCCS2)[C@H](C(=O)O)N2C(=O)C[C@H]2S1(=O)=O the IC50 (Beta-lactamase BRO-1) was 2.85 nM, the IC50 (Beta-lactamase SHV-1) was 371 nM and the IC50 (Beta-lactamase OXA-1) was 114 nM. The IC50 (Beta-lactamase TEM) was 22.8 nM.

C[C@]1(CSc2nc3ccccc3[nH]2)[C@H](C(=O)O)N2C(=O)C[C@H]2S1(=O)=O gave an IC50 (Beta-lactamase SHV-1) of 655 nM and an IC50 (Beta-lactamase TEM) of 65.5 nM.

For Cn1ccnc1SC[C@]1(C)S[C@@H]2[C@H](Br)C(=O)N2[C@H]1C(=O)O, the IC50 (Beta-lactamase BRO-1) was 63.7 nM, the IC50 (Beta-lactamase SHV-1) was 51 nM and the IC50 (Beta-lactamase OXA-1) was 10200 nM. It also gave an IC50 (Beta-lactamase TEM) of 15.3 nM.

In the case of O=C(O)[C@H]1/C(=C/CO)O[C@@H]2CC(=O)N21 [CLAVULANIC ACID], the IC50 (Beta-lactamase BRO-1) is reported as 30.1 nM.

For CC1(C)[C@H](C(=O)O)N2C(=O)C[C@H]2S1(=O)=O [SULBACTAM], the IC50 (Beta-lactamase SHV-1) was 1710 nM and the IC50 (Beta-lactamase OXA-1) was 1370 nM.

C[C@]1(Cn2ccnn2)[C@H](C(=O)O)N2C(=O)C[C@H]2S1(=O)=O [TAZOBACTAM] showed an IC50 (Beta-lactamase BRO-1) of 33.3 nM and an IC50 (Beta-lactamase SHV-1) of 133 nM.
